Data: the supplement of paper PMC10307832

Assays:
Test in all cases: relative viability (nuclei count vs DMSO), 5 days (fraction); higher = more cells survive
[1] = compound: O=C(Nc1cccc(C(F)(F)F)c1)Nc1cc(S(=O)(=O)NC2CC2)ccc1-c1ccsc1 [AGI-6780] + Nc1ncn([C@H]2C[C@H](O)[C@@H](CO)O2)c(=O)n1 [Decitabine] (partner 2 µM)
Procedure, shortened: (§1)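 Relative viability is defined as nuclei in treated wells over nuclei in vehicle wells. Duplicate plates were run and medians reported. Lung cancer cell lines in 1536-well plates were dosed by pin tool one day after seeding, with one drug or with a fixed anchor-drug dose plus five library-drug doses (not always all listed) in √10 steps, and nuclei were counted after 5 days.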

[2] = compound: O=C(Nc1cccc(C(F)(F)F)c1)Nc1cc(S(=O)(=O)NC2CC2)ccc1-c1ccsc1 [AGI-6780] + Cc1nc(NC(=O)N2CCC[C@H]2C(N)=O)sc1-c1ccnc(C(C)(C)C(F)(F)F)c1 [Alpelisib] (partner 2 µM)
Procedure, shortened: as §1

[3] = compound: O=C(Nc1cccc(C(F)(F)F)c1)Nc1cc(S(=O)(=O)NC2CC2)ccc1-c1ccsc1 [AGI-6780] + C[C@]1(O)C[C@@H](c2nc(-c3ccc4ccc(-c5ccccc5)nc4c3)c3c(N)nccn32)C1 [Linsitinib] (partner 1 µM)
Procedure, shortened: as §1

[4] = compound: O=C(Nc1cccc(C(F)(F)F)c1)Nc1cc(S(=O)(=O)NC2CC2)ccc1-c1ccsc1 [AGI-6780] + CS(=O)(=O)N1CCN(Cc2cc3nc(-c4cccc5[nH]ncc45)nc(N4CCOCC4)c3s2)CC1 [Pictilisib] (partner 1 µM)
Procedure, shortened: as §1

Row | Cell Line | relative viability ([1]; first compound 0.08 µM) | relative viability ([1]; first compound 0.253 µM) | relative viability ([1]; first compound 0.8 µM) | relative viability ([1]; first compound 2.53 µM) | relative viability ([1]; first compound 8 µM) | relative viability ([2]; first compound 0.08 µM) | relative viability ([2]; first compound 0.253 µM) | relative viability ([2]; first compound 0.8 µM) | relative viability ([2]; first compound 2.53 µM) | relative viability ([2]; first compound 8 µM) | relative viability ([3]; first compound 0.08 µM) | relative viability ([3]; first compound 0.253 µM) | relative viability ([3]; first compound 0.8 µM) | relative viability ([3]; first compound 2.53 µM) | relative viability ([3]; first compound 8 µM) | relative viability ([4]; first compound 0.08 µM) | relative viability ([4]; first compound 0.253 µM) | relative viability ([4]; first compound 0.8 µM) | relative viability ([4]; first compound 2.53 µM) | relative viability ([4]; first compound 8 µM)
1 | NCI-H2347 | 0.706 | 0.62 | 0.553 | 0.643 | 0.65 | 1 | 0.954 | 0.691 | 1 | 1.13 | 1.04 | 0.849 | 0.716 | 0.998 | 1.02 | 0.747 | 0.648 | 0.591 | 0.553 | 0.897
2 | NCI-H647 | 0.438 | 0.478 | 0.411 | 0.297 | 0.401 | 1.19 | 1.16 | 1.24 | 1.06 | 1.13 | 1.17 | 1.19 | 1.12 | 1.14 | 1.2 | 0.428 | 0.452 | 0.421 | 0.347 | 0.342
3 | COR-L 105 | 0.602 | 0.89 | 0.649 | 0.655 | 0.713 | 1.19 | 1.02 | 0.986 | 0.863 | 1.04 | 0.989 | 0.946 | 0.941 | 0.808 | 0.952 | 0.482 | 0.393 | 0.463 | 0.463 | 0.39
4 | H3255 | 0.54 | 0.612 | 0.719 |  | 0.542 | 0.687 | 0.62 | 0.728 | 0.468 | 0.754 | 1 | 0.947 | 0.96 | 0.968 | 0.969 | 0.475 | 0.436 | 0.512 | 0.457 | 0.443
5 | LCLC-97TM1 | 0.221 | 0.219 | 0.304 | 0.19 | 0.231 | 0.211 | 0.246 | 0.393 |  | 0.351 | 0.177 | 0.252 | 0.21 |  | 0.186 | 0.195 | 0.218 | 0.257 |  | 0.245
6 | NCI-H3122 | 0.447 | 0.411 | 0.42 | 0.331 | 0.498 | 0.876 | 0.859 | 0.892 | 0.633 | 0.822 | 1.03 | 0.982 | 1.01 | 1.08 | 1.04 | 0.584 | 0.563 | 0.625 | 0.548 | 0.62
7 | HCC-366 | 0.341 | 0.304 | 0.39 | 0.308 | 0.355 | 0.589 | 0.442 | 0.441 | 0.278 | 0.417 | 0.891 | 0.682 | 0.637 | 0.536 | 0.568 | 0.185 | 0.111 | 0.108 | 0.15 | 0.175
8 | SK-LU-1 | 0.73 | 0.63 | 0.567 | 0.583 | 0.572 | 0.957 | 0.906 | 0.797 | 1 | 1.02 | 1.11 | 0.976 | 0.76 | 0.917 | 1.16 | 0.496 | 0.57 | 0.437 | 0.435 | 0.752
9 | NCI-H1944 | 0.448 | 0.445 | 0.399 |  | 0.425 | 0.862 | 0.886 | 0.821 | 0.7 | 0.767 | 1.22 | 1.28 | 1.24 | 0.931 | 1.13 | 0.358 | 0.366 | 0.386 | 0.323 | 0.381
10 | HCC-15 | 0.677 | 0.756 | 0.666 | 0.546 | 0.697 | 0.883 | 0.91 | 0.939 | 0.712 | 0.919 | 0.897 | 0.867 | 0.941 | 0.777 | 0.821 | 0.88 | 0.82 | 0.834 | 0.594 | 0.801
11 | NCI-H520 | 0.599 | 0.482 | 0.434 | 0.392 | 0.467 | 1.05 | 1.08 | 0.959 | 0.732 | 0.922 | 1.04 | 0.959 | 0.979 | 0.753 | 1.04 | 0.278 | 0.315 | 0.332 | 0.257 | 0.29
12 | NCI-H1395 | 0.738 | 0.789 | 0.747 | 0.676 | 0.742 | 1.14 | 1.15 | 1.23 |  | 0.969 | 1.14 | 1.16 | 1.12 |  | 1.14 | 0.638 | 0.626 | 0.574 |  | 0.65
13 | NCI-H2023 | 0.208 | 0.238 | 0.256 | 0.233 | 0.239 | 0.674 | 0.595 | 0.596 | 0.447 | 0.617 | 0.711 | 0.677 | 0.697 | 0.648 | 0.698 | 0.284 | 0.279 | 0.271 | 0.181 | 0.229
